According to ChEMBL document CHEMBL5036339, “Synthesis and biological evaluation of indole-based peptidomimetics as antibacterial agents against Gram-positive bacteria” (Eur J Med Chem, 2021):
Converted amounts (≈) assume the structure as drawn. The source made the active and inactive calls. The rule behind the calls is not given here.

Experiments:
Staphylococcus aureus [1] = assay: Induction of drug resistance in Staphylococcus aureus ATCC29213 assessed as reduction in bacterial growth at 0.5 times MIC measured after 24 hr; type: functional, organism-based
Staphylococcus aureus [2] = assay: In vivo antibacterial activity against Staphylococcus aureus ATCC29213 in mouse bacterial keratitis model assessed as log reduction in bacterial load in infected cornea at 5%,TOP after 24 hour infection; type: functional, organism-based
Staphylococcus aureus [3] = assay: Antibacterial activity against Staphylococcus aureus ATCC29213 assessed as reduction in bacterial growth; type: functional
Staphylococcus aureus [4] = assay: Antibacterial activity against methicillin-resistant Staphylococcus aureus N315 assessed as reduction in bacterial growth; type: functional
Staphylococcus aureus [5] = assay: Antibacterial activity against methicillin-resistant Staphylococcus aureus NCTC 10442 assessed as reduction in bacterial growth; type: functional
Staphylococcus aureus [6] = assay: Bactericidal activity against Staphylococcus aureus NCTC 10442 assessed as log reduction in bacterial growth at 4X MIC measured within 0.5 hr by time-kill kinetic assay; type: functional; settings: time hrs <=0.5
Escherichia coli = assay: Antibacterial activity against Escherichia coli ATCC25922 assessed as reduction in bacterial growth; type: functional
[7] = Hemolytic activity in rabbit erythrocytes assessed as concentration required to cause 50% hemolysis; type: ADME, cell-based, Oryctolagus cuniculus, Erythrocyte

| SMILES | Activity (Staphylococcus aureus [1]) | Activity (Staphylococcus aureus [2]) | MIC (Staphylococcus aureus [3]) | MIC (Staphylococcus aureus [4]) | MIC (Staphylococcus aureus [5]) | log reduction (Staphylococcus aureus [6]) | MIC (Escherichia coli) | HC50 [7] |
| --- | --- | --- | --- | --- | --- | --- | --- | --- |
| CCn1cc(C(=O)O)c(=O)c2cc(F)c(N3CCNCC3)cc21 | Active |  |  |  |  |  |  |  |
| CN[C@H](CC(C)C)C(=O)N[C@H]1C(=O)N[C@@H](CC(N)=O)C(=O)N[C@H]2C(=O)N[C@H]3C(=O)N[C@H](C(=O)N[C@H](C(=O)O)c4cc(O)cc(O)c4-c4cc3ccc4O)[C@H](O)c3ccc(c(Cl)c3)Oc3cc2cc(c3O[C@@H]2O[C@H](CO)[C@@H](O)[C@H](O)[C@H]2O[C@H]2C[C@](C)(N)[C@H](O)[C@H](C)O2)Oc2ccc(cc2Cl)[C@H]1O [VANCOMYCIN] |  | Active | 0.78 µg/mL (≈ 0.538 µM) | 1.56 µg/mL (≈ 1.08 µM) | 1.56 µg/mL (≈ 1.08 µM) | 0.5 log10 CFU/mL |  |  |
| CC(C)=CCC/C(C)=C/Cn1cc(CC(=O)NCCCNC(=N)N)c2ccccc21 |  |  | 1.56 µg/mL (≈ 3.81 µM) | 1.56 µg/mL (≈ 3.81 µM) | 1.56 µg/mL (≈ 3.81 µM) |  | 12.5 µg/mL (≈ 30.5 µM) | 733 µg/mL |
| CC(C)=CCn1cc(CC(=O)NCCCNC(=N)N)c2ccccc21 |  |  | 50 µg/mL (≈ 146 µM) | 50 µg/mL (≈ 146 µM) | 50 µg/mL (≈ 146 µM) |  | > 100 µg/mL | > 200 µg/mL |
